Experimental data from US20220054425A1, “NANOCAPSULES COATED WITH CHITOSAN AND USE THEREOF” (SKINMED CO., LTD., priority 2018, published 2022).

Experiment: Skin permeability, Franz diffusion cell system
Type: in vitro ADME
Details: human cadaver skin, fluorescence, up to 24 hours
Excerpt: In a Franz diffusion cell system, a formulation including a drug is applied to a donor chamber while a receptor chamber is filled with physiological saline such as PBS (phosphate buffered saline), with a permeable layer, such as a permeable membrane, animal skin or cell culture skin, fixed between the donor chamber and the receptor chamber. Skin permeability can be determined by measuring the amount of the drug diffusing from the donor chamber to the receptor chamber.
In a Franz diffusion cell system, 5 ml of PBS (pH 7.4 containing 0.05% polysorbate 80) was added to the receptor chamber, a human cadaver skin with a size of 1.5×1.5 cm was fixed between the receptor chamber and the donor chamber, and each sample was placed in a donor chamber. The conditions of 37° C. and 600 rpm were set in the receptor chamber and 500 μl of the sample was recovered each time at sample times of 0.5, 1, 2, 4, 8, 12, 18, and 24 hours. The drug passing through the skin was quantitated according to time by HPLC. The result is depicted in FIG. 18.
To a donor chamber, chitosan-coated nanocapsules containing 2 wt % of Nile red (Nile red@ChiNC) were added in an amount of 2 mg/ml. As a control, Nile red alone, or Nile red-containing nanocapsules without a chitosan coating (Nile red@PluNC) were employed. […] Fluorescence in the samples taken at the predetermined times was measured. […]

CCN(CC)c1ccc2nc3c4ccccc4c(=O)cc-3oc2c1 [Nile red]
skin permeability of Nile red: almost did not penetrate into the skin
